Laboratory results: ChEMBL document CHEMBL3098121, “Dactyloditerpenol acetate, a new prenylbisabolane-type diterpene from Aplysia dactylomela with significant in vitro anti-neuroinflammatory activity” (Bioorg Med Chem Lett, 2014)
In brackets after ≈: the same amount, converted by molar mass.

What was measured:
[1] = Cytotoxicity against rat brain neonatal microglia by LDH release assay
[2] = tested on: Mycobacterium tuberculosis; assay: Antimycobacterial activity against Mycobacterium tuberculosis H37Rv; format: functional
[3] = Antineuroinflammatory activity in rat brain neonatal microglia assessed as inhibition of LPS-induced TXB2 generation; format: functional, tissue-based
[4] = Antineuroinflammatory activity in rat brain neonatal microglia assessed as inhibition of LPS-induced superoxide anion generation; format: functional, tissue-based
DU-145 = assay: Cytotoxicity against human DU145 cells; format: functional
A2058 = assay: Cytotoxicity against human A2058 cells; format: functional
[5] = Antineuroinflammatory activity in rat brain neonatal microglia; format: functional, tissue-based

With `CC(=O)O[C@@H](CC[C@@H](C)[C@@H]1CCC(C)=C[C@H]1O)[C@](C)(O)CCC=C(C)C` the IC50 [1] was > 10000 nM, the MIC [2] was 59.4 µg/mL (≈ 162 µM) and the IC50 [3] was 400 nM. For the same molecule, the IC50 [4] was 1000 nM, the Activity (DU-145) was 77% and the Activity (A2058) was 67%.

In the case of `CC(=O)Oc1ccccc1C(=O)O` [ASPIRIN], the IC50 ([5]; read-out: IC50) is reported as 3.2 nM.

`CC(C(=O)O)c1ccc(-c2ccccc2)c(F)c1` (stereo not drawn) [FLURBIPROFEN] gave an IC50 ([5]; read-out: IC50(app)) of 100 nM.
